# Measurements from patent publication US20250040548A1, “Herbicidal compositions comprising saflufenacil” (BASF SF, priority 2023, published 2025).
# What was measured:
# BRADC = assay: Post-emergence application in field trials (Examples 2 and 3); assay type: in vivo, Brachiaria decumbens; details: growth stage 22-23, height 32-38 cm, 21 DAT, 1% Dash ® HC
# Procedure: (§1) In the examples below, using the method of S. R. Colby (1967) “Calculating synergistic and antagonistic responses of herbicide combinations”, Weeds 15, p. 22ff., the value E, which is expected if the activity of the individual active compounds is only additive, was calculated.
# (§2) [formula] • where • X=percent activity using active herbicide A at an application rate a; • Y=percent activity using active saflufenacil at an application rate b; • E=expected activity (in %) by A+B at application rates a+b.
# (§3) If the value found experimentally is higher than the value E calculated according to Colby, a synergistic effect is present.
# (§4) On field test sites, natural weed infestation or seeded weeds were treated post-emergence of the weeds.
# (§5) For the post emergence treatment, the weedy plants were treated as indicated below. The herbicidal compositions were, together with the adjuvant(s) as indicated, suspended or emulsified in water (200 l/ha unless indicated otherwise) as distribution medium and sprayed with commercial flat fan nozzles.
# (§6) In the following experiments, the herbicidal activity for the individual herbicidal compositions (solo and mixture applications) was assessed the indicated days after treatment (DAT). The assessments for the damage on undesired weeds caused by the composition was carried out using a scale from 0 to 100%, compared to the untreated control plants. Here, 0 means no damage and 100 means complete destruction of the plants.
# as §5, with “I/ha” for “l/ha”
# COMBE = assay: as above; assay type: in vivo, Commelina benghalensis; details: 21 DAT, growth stage 11-14, height 2-10 cm, 0.5% MSO
# Procedure: as §1, §2, §3, §4, §5
# as §6, with “Here, 0 means no damage and 100 means complete destruction of the plants.” left out
# LAMAN = assay: as above; assay type: in vivo, Lamium amplexicaule; details: height 3-18 cm, 21 DAT, 1% v/v MSO and 1% AMS (ammonium sulfate)
# Procedure: as §1, §2, §3, §4, §5
# as §6, with “Here, 0 means no damage and 100 means complete destruction of the plants.” left out
# ALOMY = assay: Post-emergence application in greenhouse trials; assay type: in vivo, Alopercurus myosuroides; details: 7 DAT, growth stage 21, saflufenacil as commercial 342 g/l SC formulation
# Procedure: as §1, §2, §3
# The culture containers used were plastic pots containing loamy sand with approximately 3.0% of humus as substrate. The seeds of the test plants were sown separately for each species.
# For the post-emergence treatment, the test plants were grown to a plant height of from 3 to 15 cm, depending on the plant habit, and only then treated with the active compounds which had been suspended or emulsified in water. To this end, the test plants were either sown directly, and grown in the same containers, or they were first grown separately as seedlings and transplanted into the test containers a few days prior to treatment. […]
# The test period extended over 2 to 4 weeks. During this time, the plants were tended and their response to the individual treatments was evaluated. […]
SMILES,% Herbicidal activity (BRADC; A-1 solo 30 g ai/ha),% Herbicidal activity (BRADC; A-1 solo 50 g ai/ha),% Herbicidal activity (COMBE; A-1 50 g ai/ha),% Herbicidal activity (LAMAN; A-1 solo 25 g ai/ha),% Herbicidal activity (ALOMY; A-1 3.12 g ai/ha),% Herbicidal activity (BRADC; B-1 solo 25 g ai/ha),% Herbicidal activity (COMBE; B-1 25 g ai/ha),% Herbicidal activity (LAMAN; B-1 solo 25 g ai/ha),% Herbicidal activity (ALOMY; B-1 3.12 g ai/ha)
"CCOC(=O)COc1ccccc1Oc1nc(-n2c(=O)cc(C(F)(F)F)n(C)c2=O)c(F)cc1Cl [A-1, ethyl 2-[2-[[3-chloro-5-fluoro-6-[3-methyl-2,6-dioxo-4-(trifluoromethyl)pyrimidin-1-yl]-2-pyridyl]oxy]phenoxy]acetate]",75%,88%,94%,93%,70%,,,,
"CC(C)N(C)S(=O)(=O)NC(=O)c1cc(-n2c(=O)cc(C(F)(F)F)n(C)c2=O)c(F)cc1Cl [B-1, saflufenacil]",,,,,,12%,5%,40%,25%
